Assay results reported in patent publication US11007176B2, “Use of actin depolymerizing agents for the treatment of anxiety disorders” (priority 2019, dated 2021).
Entries after “also recorded” stand apart in the source; their conditions may differ.

Tested on: Atf3^−/− mice
Assay: Trace fear conditioning (contextual and tone freezing tests) after intracranial infusion of cytochalasin D
Type: in vivo
Experimental: The habituation session was performed similarly to the DFC. The mice were divided into three groups (WT: n=15; Atf3^+/−: n=10; Atf3^−/−: n=16) and placed in the conditioning chamber for 15 min per day for 3 days. On Day 4, they underwent three trace fear conditioning trials: a 20-s tone (6000 Hz, 85 dB; CS), followed by a 10-s time interval, and then a 1-s foot shock (2 mA; US). Twenty-four hours later, the mice were placed in the same conditioning chamber for 6 min with neither tone nor foot shock for contextual testing. One hour after the contextual test, the mice were placed in a novel chamber for a tone test, which was performed as follows: 1 min with neither tone nor foot shock followed by a 6-min tone (6000 Hz, 85 dB). Freezing behaviors were recorded and analyzed using the FreezeScan software, and the freezing percentage was calculated using the aforementioned formula.
At 14 weeks of age, mice (Atf3^+/−: n=5, Atf3^−/−: n=9) were anesthetized using a mixture of ketamine, xylazine, and saline (0.55 mL/25 g) in accordance with the regulations of the Lab Animal Center, Tzu Chi University, Taiwan. Mouse heads were restrained in stereotaxic apparatus to ensure movement restriction during surgery. […] After surgery, the mice were placed in their respective cages to recover for 4 days and were then tested for TFC. Habituation was performed as described in the trace fear conditioning protocol. Using a Hamilton syringe, the actin depolymerizing agent cytochalasin D (Sigma-Aldrich, MO, USA, catalogue No. C8273), dissolved in dimethyl sulfoxide at a concentration of 25 μg/μL, was infused at a rate of 0.5 μL/min for 1 min immediately after fear conditioning on Day 4. Twenty-four hours later, contextual and tone testing was performed as previously described. A few mice were unable to perform the tasks because of loss of mobility after surgery; the data for these mice are not included. Mice were transcardially perfused, and their brains were incubated in Golgi-Cox staining solution.

C=C1[C@@H](C)[C@H]2[C@H](Cc3ccccc3)NC(=O)[C@]23[C@H](OC(C)=O)/C=C/[C@@](C)(O)C(=O)[C@@H](C)C/C=C/[C@H]3[C@@H]1O [cytochalasin D]
Freezing percentage to context (Atf3^−/− mice, cytochalasin D 25 μg/μL in DMSO infused at 0.5 μL/min for 1 min immediately after trace fear conditioning, contextual test 24 h later, compared with Atf3^−/− mice treated with saline (FIG. 5G)): significantly lower
Freezing percentage to tone (Atf3^−/− mice, cytochalasin D 25 μg/μL in DMSO infused at 0.5 μL/min for 1 min immediately after trace fear conditioning, tone test 24 h later, compared with Atf3^−/− mice treated with saline (FIG. 5H)): significantly lower
Freezing behavior (fear phenotype) of Atf3^−/− mice (hippocampal / intracranial infusion of cytochalasin D, summary statement, context or tone test not specified): reversed the phenotype of Atf3^−/− mice; also recorded: reduced the freezing behavior of the Atf3^−/− mice to a wild-type mouse level
